Measured values taken from patent US11883526B2 (priority 2019, dated 2024).

How the values were obtained:
[1] = test system: adult subjects with TRD; details: US patients
Description: Adverse events were reported by the subject (or, when appropriate, by a caregiver, surrogate, or the subject's legally acceptable representative) for the duration of the study. Adverse events were followed by the investigator. TEAEs of special interest were examined separately.
The verbatim terms used in the eCRF by investigators to identify adverse events were coded using the MedDRA. All reported adverse events with onset during the double-blind induction phase (i.e., TEAEs, and adverse events that have worsened since baseline) were included in the analysis. For each adverse event, the percentage of subjects who experience at least 1 occurrence of the given event was summarized by treatment group. Adverse events occurring during the follow-up phase were summarized separately.
TEAEs of special interest were examined separately. AEs of special interest were listed in the SAP. Subjects who died, who discontinued treatment due to an adverse event, or who experienced a severe or a serious adverse event were summarized separately.
An adverse event is any untoward medical occurrence in a clinical study subject administered a medicinal (investigational or non-investigational) product. […]

[2] = test system: adult subjects with TRD
Protocol: Blood pressure and pulse/heart rate measurements were assessed supine with a completely automated device. Manual techniques were used only if an automated device is not available. Blood pressure and pulse/heart rate measurements were preceded by at least 5 minutes of rest in a quiet setting without distractions (e.g., television, cell phones).
Descriptive statistics of temperature, pulse/heart rate, respiratory rate, pulse oximetry, and blood pressure (systolic and diastolic) (supine) values and changes from baseline were summarized at each scheduled time point. The percentage of subjects with values beyond clinically important limits were summarized.

CN[C@]1(c2ccccc2Cl)CCCCC1=O [esketamine, (S)-2-(2-chlorophenyl)-2-(methylamino)cyclohexanone]
patients who withdrew from nasal spray drug [1]: 3 n
maximum mean increase in diastolic BP ([2]; across all dosing days): 8.1
time blood pressure returned to normal range ([2]; double-blind phase): 90 min
time of peak of transient blood pressure increase post dose ([2]; double-blind phase): approximately 40 minutes
